Positions count from the first letter of the chain named. Blank lines part the entries; values can stand above or below the compound they belong to.
Legend:
[1] = biological target: T1, KDM4C DTD (human KDM4C double tudor domain, 877–991aa) (Homo sapiens, UniProt Q9H3R0); experiment: fluorescence polarization (FP) binding, KDM4C-DTD wild-type; settings: matrix Fig. 1d, pH 7.4, read-out: binding affinity (Kd), KDM4C DTD
T1 construct: DNA encoding DTDs (KDM4A 895–1011aa, KDM4B 917–1031aa and KDM4C 877–991aa); (His)6-HaloTag (pFN29) or (His)6 (pET28b); made in house; host or cells: Escherichia coli BL21 (DE3)
T1 sequence (Q9H3R0 877-991): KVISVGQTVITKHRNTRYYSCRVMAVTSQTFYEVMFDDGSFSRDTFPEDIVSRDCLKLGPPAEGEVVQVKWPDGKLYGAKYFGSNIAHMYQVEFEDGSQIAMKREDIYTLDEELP
Description: (§1) KDM4 protein sequences used in this study correspond to Uniprot ID: O75164 (human KDM4A, isoform 1), O94953 (human KDM4B, isoform1) and Q9H3R0 (human KDM4C, isoform1). Plasmid encoding KDM4A DTD was kindly provided by R-M Xu (Chinese Academy of Sciences). Complementary DNA encoding human KDM4B-DTD was synthesized (Integrated DNA Technologies). Plasmid containing cDNA of full-length KDM4C (clone ID: HsCD00341594) was obtained from Harvard Plasmid Repository. DNA encoding DTDs (KDM4A 895–1011aa, KDM4B 917–1031aa and KDM4C 877–991aa) were cloned into pFN29 (Promega) with N-terminal (His)6-HaloTag or pET28b with N-terminal (His)6 Tag using In-Fusion HD cloning kit (Clontech). […]
(§2) Peptide sequences are given in Supplementary Table 1. […] Polarization at each concentration was measured as triplicates in 384-well polystyrene black microplates (Thermo Fisher Scientific 262260) by Biotek Synergy H4 multimode plate reader (light source: xenon flash, offset from top: 7 mm, sensitivity: 60%, excitation: 485/20 nm, emission: 528/20 nm, both parallel and perpendicular, normal read speed). Fraction bound (Fb) at each concentration was calculated based on the corresponding polarization values (P): Fbc=(Pc−Pmin)/(Pmax−Pmin), where Pmin is the polarization value of no-protein control and Pmax is the polarization value of the saturation value for that peptide. […]

[2] = biological target: T2, KDM4A DTD (human KDM4A double tudor domain, 895–1011aa) (Homo sapiens, UniProt O75164); experiment: fluorescence polarization (FP) binding, KDM4A-DTD wild-type; settings: matrix Fig. 1d and Fig. 3c, pH 7.4, read-out: binding affinity (Kd), KDM4A DTD wild-type
T2 construct: DNA encoding DTDs (KDM4A 895–1011aa, KDM4B 917–1031aa and KDM4C 877–991aa); (His)6-HaloTag (pFN29) or (His)6 (pET28b); made in house; host or cells: Escherichia coli BL21 (DE3)
T2 sequence (O75164 895-1011): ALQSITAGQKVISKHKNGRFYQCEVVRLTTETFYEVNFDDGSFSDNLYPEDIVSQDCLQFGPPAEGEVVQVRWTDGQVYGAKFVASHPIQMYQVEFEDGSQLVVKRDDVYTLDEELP
Description: (§3) KDM4 protein sequences used in this study correspond to Uniprot ID: O75164 (human KDM4A, isoform 1), O94953 (human KDM4B, isoform1) and Q9H3R0 (human KDM4C, isoform1). Plasmid encoding KDM4A DTD was kindly provided by R-M Xu (Chinese Academy of Sciences). Complementary DNA encoding human KDM4B-DTD was synthesized (Integrated DNA Technologies). Plasmid containing cDNA of full-length KDM4C (clone ID: HsCD00341594) was obtained from Harvard Plasmid Repository. DNA encoding DTDs (KDM4A 895–1011aa, KDM4B 917–1031aa and KDM4C 877–991aa) were cloned into pFN29 (Promega) with N-terminal (His)6-HaloTag or pET28b with N-terminal (His)6 Tag using In-Fusion HD cloning kit (Clontech). Plasmids encoding Xenopus laevis core histones were a generous gift of K. Luger (University of Colorado-Boulder). Site-directed mutagenesis was performed with Q5 Site-Directed Mutagenesis Kit (New England Biolabs).
(§4) Peptide sequences are given in Supplementary Table 1. […] A no-protein control with only peptide probe was included. Polarization at each concentration was measured as triplicates in 384-well polystyrene black microplates (Thermo Fisher Scientific 262260) by Biotek Synergy H4 multimode plate reader (light source: xenon flash, offset from top: 7 mm, sensitivity: 60%, excitation: 485/20 nm, emission: 528/20 nm, both parallel and perpendicular, normal read speed). Fraction bound (Fb) at each concentration was calculated based on the corresponding polarization values (P): Fbc=(Pc−Pmin)/(Pmax−Pmin), where Pmin is the polarization value of no-protein control and Pmax is the polarization value of the saturation value for that peptide. Dissociation constants (Kd) were derived by KaleidaGraph, Synergy Software (version 4.1.3) using the following equation: Fb=[protein]/([protein]+Kd).

[3] = biological target: T3, KDM4B DTD (human KDM4B double tudor domain, 917–1031aa) (Homo sapiens, UniProt O94953); experiment: fluorescence polarization (FP) binding, KDM4B-DTD wild-type; settings: matrix Fig. 1d, pH 7.4, read-out: binding affinity (Kd), KDM4B DTD
T3 construct: DNA encoding DTDs (KDM4A 895–1011aa, KDM4B 917–1031aa and KDM4C 877–991aa); (His)6-HaloTag (pFN29) or (His)6 (pET28b); made in house; host or cells: Escherichia coli BL21 (DE3)
T3 sequence (O94953 917-1031): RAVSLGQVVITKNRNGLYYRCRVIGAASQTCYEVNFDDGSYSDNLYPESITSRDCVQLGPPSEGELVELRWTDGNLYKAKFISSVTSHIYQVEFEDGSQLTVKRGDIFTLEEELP
Description: as §3, §4

[4] = biological target: T4, KDM4A-DTD triple mutant N931D/D939R/D945R (DRR) (Homo sapiens, UniProt O75164, D939R/D945R/N931D); experiment: FP binding, KDM4A-DTD DRR mutant; settings: matrix Fig. 3c, values given in mM, pH 7.4, read-out: binding affinity (Kd), DRR mutant
T4 construct: DNA encoding DTDs (KDM4A 895–1011aa, KDM4B 917–1031aa and KDM4C 877–991aa); (His)6-HaloTag (pFN29) or (His)6 (pET28b); made in house; host or cells: Escherichia coli BL21 (DE3)
T4 sequence (O75164 895-1011 N931D/D939R/D945R): T2 sequence (O75164 895-1011) with N37D, D45R, D51R
Description: as §1, §2

[5] = tested on: KDM4B-DTD; experiment: biotinylated histone peptide pull-down, KDM4B-DTD; format: binding, human; settings: compared with KDM4A and KDM4C DTDs
[6] = tested on: H3K23me3 antibody; experiment: H3K23me3 antibody profiling on histone peptide microarray; settings: scale from zero (no binding) to one (highest binding), Supplementary Fig. 5b-c
Procedure: Peptide arrays were handled with care and protected from light. All solutions were filtered before putting on the array. Assays were performed with a modified two-chamber simplex gasket (Intuitive Bioscience). After tightening the gasket onto the slide surface, the peptide array was blocked with blocking solution (1 × PBS, 0.05% Tween-20 pH 7.4, 1% BSA) at 4 °C overnight, to reduce nonspecific binding. (1) Reader binding: 10–50 nM purified recombinant HT-KDM4 DTDs were first reacted with excessive HaloTag ligand-biotin (Promega) in blocking solution on ice for 15 min and incubated on peptide array under mild rocking at 4 °C, 1 h. The slide was washed with PBS with 0.05% Tween (PBST) three times and incubated with 1:2,000 streptavidin-conjugated Alexa-Fluor647 (Invitrogen) in blocking solution at room temperature for 1 h. (2) Antibody binding: after blocking, 1:2,500–1:100 dilution H3K23me3 antibody in blocking solution were incubated with peptide microarray under mild rocking at 4 °C, 1 h. The slide was washed with PBST three times and incubated with 1:1,000 anti-rabbit IgG Alexa 647 (Cell Signaling) in blocking solution at room temperature for 1 h. […] Signal intensities were quantified by GenePix Pro 6.1 software (Molecular Devices). […] For each peptide species, an average was calculated from three replicate spots. […]

[7] = tested on: KDM4B full-length protein; experiment: MS-based demethylation assay, full-length KDM4B; format: biochemical, human; settings: 0.2 μM enzyme, 5–10 μM peptide, pH 7.5, 25 °C, MS read-out; single peptide substrates; Fig. 6a,b
Procedure: In a typical demethylase reaction, the assay mixture containing 50 mM Tris pH 7.5, 50 mM NaCl, 50 μM (NH4)2Fe(SO4)2, 0.5 mM ascorbic acid, 1 mM α-ketoglutarate and 0.2 μM full-length KDM4A–C (Active Motif) was mixed with 5–10 μM of trimethylated histone peptides (detailed sequence information in Supplementary Table 1). Each peptide concentration was quantified by measuring Abs280nm for peptides containing either tryptophan or tyrosine residue. After incubation of assay mixture at 25 °C for 10, 30 and 60 min time point, 10 μl of aliquot was transferred to a clean tube containing 5 μl of 5% formic acid to quench the reaction. Each quenched sample was treated with standard StageTip protocol using C18 extraction disk (Model 2215, Empore, 3 M) to remove excess salts and detergents in the reaction mixture. Each eluate from StageTip containing peptides was dried at a reduced pressure (vacuum centrifuge) and was re-suspended with 10 μl of 5% acetonitrile solution (0.1% formic acid). The 1 μl of the sample was injected at 0.7 μl min^−1 flow rate onto a Dionex Ultimate 3000 Nano LC system equipped with Atlantis dC18 NanoEase reverse-phase column (3 μm, 100 μm × 150 mm, Waters) and coupled to a hybrid quadrupole-orbitrap MS (Q-Exactive, Thermo Scientific). The peptide was eluted at 4–15 min retention time with a linear gradient of 2–35% acetonitrile (0.1% formic acid). All the solvents used for liquid chromatography MS were HPLC grade (Fisher). For each analysis, MS1 scan range of 300–1,100 m/z was used and data-dependent MS/MS was obtained to identify the site of demethylation. Each peptide peak and its area integration was performed on the XCalibur Qual Browser.

Kd [1]: 103 µM | Kd [2]: 122 µM | Kd [3]: 140 µM | Kd [4]: 0.57 mM
Compound: CC(C)C[C@H](NC(=O)[C@H](CCC(N)=O)NC(=O)[C@H](CCCCN)NC(=O)[C@H](CCCNC(=N)N)NC(=O)c1ccc2c(c1)C(=O)OC21c2ccc(O)cc2Oc2cc(O)ccc21)C(=O)N[C@@H](C)C(=O)N[C@H](C(=O)N[C@@H](CCCCN)C(=O)N[C@@H](C)C(=O)N[C@@H](C)C(=O)N[C@@H](CCCNC(=N)N)C(=O)N[C@@H](CCCC[N+](C)(C)C)C(=O)N[C@@H](CO)C(=O)N[C@@H](C)C(=O)N1CCC[C@H]1C(=O)N[C@@H](C)C(=O)N[C@H](C(=O)O)[C@@H](C)O)[C@@H](C)O [H3K27me3]

pull-down binding of KDM4B-DTD [5]: Decreased
Compound: ARTK(Me3)QTARKSTE(PEGbiotin)W [H3K4me3 (biotinylated), H3K4me3 peptide for pull-down, PEGbiotin, in-house]

Compound: H3K36me3: demethylation assay peptide, Tufts University Core Facility
relative signal intensity with H3K23me3 antibody [6]: less than 0.1 | demethylation by full-length KDM4B [7]: consistent H3K36me3 demethylation

Reference: article PMC5114558, “Reader domain specificity and lysine demethylase-4 family function” (Nature Communications, 2016)
